Data reported in PubChem BioAssay AID179 (DTP/NCI, 2004).
Activity calls are given as the source filed them.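 How the source made its calls: active means compounds giving half or more protection of infected cells from virus-caused growth loss, again on retest; inactive means the rest.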 Where a SMILES comes first, the peptide text is derived from it. [ ]: non-standard residue; d: D form. The star is where a group is joined. Phe(4-NO2) = N[CH](Cc1ccc([N+](=O)[O-])cc1)C(=O)O; Cbz = O=C(OCc1ccccc1)*; OBn = c1ccc(CO*)cc1

Test system: CEM cells HIV-1 protection, formazan growth assay
Test: NCI AIDS Antiviral Assay
Settings: for IC50: measured here: growth of uninfected CEM cells
Outline: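 Protection of CEM cells against HIV-1 measured as cell growth via soluble formazan read-out, with five concentrations tested on both infected and uninfected cells; failure to protect may reflect toxicity.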

Compound | EC50 [µM] | IC50 [µM] | outcome
Cc1ccc(S(=O)(=O)N/N=C(/c2nc3ccc([N+](=O)[O-])cc3[nH]c2=O)C(O)c2ccc(C(O)/C(=N\NS(=O)(=O)c3ccc(C)cc3)c3nc4ccc([N+](=O)[O-])cc4[nH]c3=O)cc2)cc1 (centres undefined) | > 39.8 | > 39.8 | –
COC1=C2CC(C)CC(OC)C(O)C(C)/C=C(\C)C(OC(N)=O)C(OC)/C=C\C=C(/C)C(=O)NC(=C(/C=N/N3CCCCC3)C1=O)C2=O (centres undefined) | > 200 | 3.89 | –
CC1(C)Oc2ccc3c4c(c(=O)oc3c2[C@@H](OC(=O)C23CCC(C)(C(=O)O2)C3(C)C)[C@H]1OC(=O)C12CCC(C)(C(=O)O1)C2(C)C)CCCC4 (some centres undefined) | 0.813 | 12 | –
CCCC#CC(O)(C(=O)OC1CCN(C)CC1)C1CCCCC1 (centres undefined) | > 200 | > 200 | –
CC1(C)CC(N2CCN(C3CC(C)(C)NC(C)(C)C3)CC2)CC(C)(C)N1 | > 339 | > 339 | –
Cc1cc(OC(F)(F)c2nc3ccccc3o2)cc(C)c1C | 25.1 | 26.9 | –
COc1cc(OCc2nc3cc(C(F)(F)F)ccc3nc2-c2ccccc2)cc(OC)c1OC | > 200 | 89.1 | –
Nc1ccc(N=Nc2ccc(N=Nc3ccc(N=Nc4cc(S(=O)(=O)O)c5ccccc5c4O)c4ccc(S(=O)(=O)O)cc34)c3ccc(S(=O)(=O)O)cc23)cc1 | – | – | active
O=[N+]([O-])c1ccc(N2N=C(c3ccc(NCc4nc5ccccc5[nH]4)cc3)CC2c2ccco2)cc1 (centres undefined) | > 15.1 | > 15.1 | –
CCOc1ncnc2c1ncn2C1OC(CO)CC1F (centres undefined) | > 178 | > 178 | –
CC1(C)CNC[C@@]2(C)OCCOCCOCCO[C@](C)(CNCC(C)(C)NC2=O)C(=O)N1 | > 200 | > 200 | –
CC1CN=C(N(C(=O)Nc2ccccc2)C2CCCCC2)S1 (centres undefined) | – | – | inactive
Cc1c(-c2cnccn2)ssc1=S | > 200 | 102 | –
NS(=O)(=O)c1ccc(NNc2c3ccccc3nc3c(C(=O)Nc4ccc(S(=O)(=O)Nc5ncccn5)cc4)cccc23)cc1 | > 50.1 | 26.9 | –
O=C(CSc1nnc(Cc2ccccc2)o1)Nc1ccccc1Cl | > 138 | > 138 | –
C=c1c2ccccc2oc2nc3[nH]c(N)c(C#N)c(N)c3c(=N)c12 | > 200 | 7.24 | –
C=C[C@@]1(C)CC2(C=C(CO)C(O)O2)Oc2c1c(=O)oc1cccc(C)c21 (some centres undefined) | > 200 | 3.02 | –
Nc1ncnc2nc(C3OC(CO)C(O)C3O)[nH]c12 (centres undefined) | > 70.8 | > 70.8 | –
CCn1c2c(c3ccccc31)CCSC2(C)CCN(C)C (centres undefined) | – | – | inactive
Cc1cn(C2C=CCCC2)c(=O)[nH]c1=O (centres undefined) | > 871 | > 871 | –
CSC(SC)=C(C(=O)O)P(=O)(O)O | > 200 | > 200 | –
CC(=O)C1(C)CC(C#N)(C#N)C(C#N)=C1N (centres undefined) | > 200 | > 200 | –
N#CC1C(=O)SC2c3ccccc3C(=O)c3ccccc3C12 (centres undefined) | > 200 | 132 | –
O=C(CC(=O)N1N=C(n2ccc3ccccc32)CC1c1ccccc1)Nc1ccccc1Cl (centres undefined) | > 8.32 | > 8.32 | –
CN(CCc1ccccn1)C(=S)N/N=C/c1ccccn1 | > 0.2 | 0.0251 | –
COC(=O)C(Cc1ccc(O)cc1)NC(=O)C(CC(=O)OCc1ccccc1)NC(=O)OCc1ccccc1 (centres undefined) (Cbz-Asp(OBn)-Tyr-OMe; configuration not given here) | > 200 | 30.9 | –
Nc1nc(Cl)cc(NCC2(CO)CC(CCCc3ccccc3)C2)n1 (centres undefined) | > 20 | 0.0603 | –

Compound | EC50 [µM] | IC50 [µM] | outcome
COc1cccc(/C=N/[N-]C(=O)c2ccncc2)c1[O-].[Co+2].[OH3+] | > 20.9 | > 20.9 | –
O=C(CN1CCCCC1)c1ccc2c(c1)Cc1cc(C(=O)CN3CCCCC3)ccc1O2 | > 70.8 | 33.1 | –
COCC1=C(O)C=C2Oc3c(C(C)=O)c(O)c(C)c(O)c3[C@@]2(C)C1=O | > 100 | 12 | –
COC(=O)C(C(=O)C(=O)Nc1ccc(Br)cc1)c1nc2ccc(Cl)cc2[nH]c1=O (centres undefined) | > 75.9 | 4.07 | –
Cc1cc(S(=O)(=O)NC2=NCc3nc4ccccc4n32)c(S)cc1Cl | > 200 | 35.5 | –
Cn1c(-c2ccc(/C=N/N=C/c3ccc(-c4c[n+]5ccccc5n4C)cc3)cc2)c[n+]2ccccc12 | > 200 | 170 | –
CCOC(=O)c1ccc(CS(=O)(=O)c2ccccc2C(=O)OCC)c([N+](=O)[O-])c1 | > 85.1 | > 85.1 | –
O=CC1=CN2C(c3ccoc3)CCC(CO)C2CC1 (centres undefined) | – | – | inactive
Oc1cnc2c(O)cccc2c1 | > 200 | 17.8 | –
CC(C)=NNC=N/C(C#N)=C(\N)C#N | > 200 | > 200 | –
CC1(C)OCN(c2ccc(N3CCOCC3)cc2)Cn2c1nc1ccccc12 | > 200 | 64.6 | –
C[C@@H]1C[C@H]2[C@@H]3CCC4=CC(=O)CC[C@]4(C)[C@@]3(F)[C@@H](O)C[C@]2(C)[C@@]1(C)O | > 200 | 87.1 | –
Cn1cc(C=O)c2nccnc21 | > 1050 | > 1050 | –
Cc1cnc2sn(-c3ccc(Br)cc3)c(=O)c2c1 | > 200 | 11.5 | –
C/C(=C\C(=O)OCCCCCCCC(N)=O)C(O)[C@@H]1OCC(C/C=C/[C@@H](C)[C@H](C)O)[C@@H](O)[C@H]1O (some centres undefined) | > 200 | > 200 | –
O=C(CC(=O)c1ccccc1)CC(=O)c1ccccc1 | > 19.5 | > 19.5 | –
CCCCCCCCSc1ncnc2[nH]ncc12 | > 79.4 | 8.51 | –
CC(C)OP(=O)(OC(C)C)C(Nc1cccc(C(F)(F)F)c1)c1ccccc1 (centres undefined) | > 200 | 33.9 | –
[N-]=[NH+]CC(=O)OC(COCc1ccccc1)COCc1ccccc1 | > 200 | 117 | –
CC1(C)Oc2ccccc2OC1O (centres undefined) | > 200 | > 200 | –
C/C(=N\NC(=O)N/N=C(\C)c1ccccn1)c1ccccn1 | > 2 | 0.0339 | –
CCOC(=O)C(C)c1nc2ccc(C(F)(F)F)cc2[nH]c1=O (centres undefined) | > 200 | 110 | –
Cc1nn2c(=O)n(-c3cccc(-n4nnc5c(-c6ccccc6)c(C)nn5c4=O)c3C)nnc2c1-c1ccccc1 | – | – | inactive
Clc1cc(OC23CC4CC(CC(C4)C2)C3)nc(Cl)n1 | > 100 | 45.7 | –
NC(=O)CNC(=O)[C@@H]1C[C@@H](OCCC(=O)O)CN1C(=O)OCc1ccccc1 | > 200 | > 200 | –
CN(C)CCCN1C(=O)CCC(=O)Nc2ccccc2-c2ccccc21 | – | – | inactive
CC(C)CC(NC(=O)C(Cc1cnc[nH]1)NC(=O)C(CC(N)=O)NC(=O)C(NC(=O)C(CO)NC(=O)C(Cc1ccc(O)cc1)NC(=O)C(CO)NC(=O)C(C)NC(=O)C(N)CCCCN)C(C)O)C(=O)O (centres undefined) (H-KASYSTNHL-OH; configuration not given here) | > 61.7 | > 61.7 | –

Compound | EC50 [µM] | IC50 [µM] | outcome
C[C@@H](NC(=O)Nc1cccc(C(=O)Nc2cc(C(C)(C)C)ccc2C(=O)O)n1)c1ccccc1 | > 200 | 17.4 | –
Nc1cc(Cl)c(S(=O)(=O)O)cc1Cl | > 200 | > 200 | –
N#Cc1nc(C2CCC2)oc1N | > 200 | > 200 | –
O=S(O)CCCCSSSCCCCS(=O)O | > 200 | 2.69 | –
c1ccc(CN2COc3ccc4c5c(ccc4c3C2)OCN(Cc2ccccc2)C5)cc1 | > 2.45 | > 2.45 | –
CCCCCCCC(=O)c1ccc(O)c(C(=O)Nc2ccc(C(F)(F)F)cc2)c1 | > 33.1 | 5.01 | –
CCOC1(C)Nc2cc(OC)cc3c2N1C(=O)CCS3 (centres undefined) | > 200 | 95.5 | –
CC(C)CCCC(C)[C@H]1CC[C@@H]2[C@H]3CC[C@H]4C[C@@H](CCC=C(c5cc(Cl)c(OCc6ccc([N+](=O)[O-])cc6)c(C(=O)OCc6ccc([N+](=O)[O-])cc6)c5)c5cc(Cl)c(OCc6ccc([N+](=O)[O-])cc6)c(C(=O)OCc6ccc([N+](=O)[O-])cc6)c5)CC[C@]4(C)[C@@H]3CC[C@]12C (some centres undefined) | 23.4 | 72.4 | –
c1ccc(C2=NOCC3(c4ccccc4)OC23)cc1 (centres undefined) | > 31.6 | 12 | –
Sc1nnc(-c2ccccc2Nc2ccccc2-c2nnc(S)n2-c2ccccc2)n1-c1ccccc1 | > 87.1 | 25.1 | –
Clc1ccc(CN2COc3c(ccc4cccnc34)C2)c(Cl)c1 | > 200 | 1.45 | –
Cc1ccccc1C(C#N)/C(=N/NC(=O)c1cc2ccccc2cc1O)C(=O)Nc1cccc(Cl)c1 (centres undefined) | > 191 | 4.9 | –
CC1(C)CNC[C@@](C)(OCc2ccccc2)C(=O)[N-]C(C)(C)CNC[C@@](C)(OCc2ccccc2)C(=O)[N-]1.[Ni+2] | > 200 | 105 | –
O=c1c(Sc2c(O)c3ccccc3c3ccccc3c2=O)c(O)c2ccccc2c2ccccc12 | – | – | inactive
CC(NC(=O)C(Cc1ccc([N+](=O)[O-])cc1)NC(=O)C(N)CCCCN)C(=O)NC(Cc1ccc([N+](=O)[O-])cc1)C(N)=O (centres undefined) (H-K[Phe(4-NO2)]A[Phe(4-NO2)]-NH2; configuration not given here) | > 200 | > 200 | –
COc1ccc(OP2OCC(C)O2)cc1 (centres undefined) | > 1100 | 46.8 | –
O=C1CCC2(c3ccc(F)cc3)Nc3ncncc3N12 (centres undefined) | > 347 | > 347 | –
CCCCCCc1cc(C(=O)Nc2cccc(C(F)(F)F)c2)nc(N)n1 | – | – | inactive
CCOC(=O)C1=C(Nc2ccc(Br)cc2)OC/C1=N\NC(=O)c1ccccc1O | > 38.9 | 3.98 | –
COc1ccc(C2C3=C(N=C4SC(C(C)=O)=C(C)N42)c2ccccc2CC3)cc1 (centres undefined) | > 200 | 17.4 | –
CCCCCCOCC(=O)O | > 200 | > 200 | –
Nc1ccc([N+](=O)[O-])cc1N=C/C=C/c1ccccc1 | > 10.2 | > 10.2 | –
O=c1c(O)c(-c2ccccc2)oc2c(CP(=O)(O)O)cccc12 | > 200 | 162 | –
NNC(=S)SSC(=S)NN | > 200 | 21.9 | –
CC(=O)C1CC2=C(CCC1=O)CCC1(CC2)OCCO1 (centres undefined) | – | – | inactive
